Data reported in patent publication US9802960B2 (MILLENNIUM PHARMACEUTICALS, INC., priority 2014, dated 2017).

Biological target: Human VPS34 (Homo sapiens (Human), UniProt Q8NEB9)
Assay: Human VPS34 enzyme assay (Adapta TR-FRET)
Type: biochemical
Conditions: compound concentration 1.11 μM

Sequence of Human VPS34 (Q8NEB9 whole entry): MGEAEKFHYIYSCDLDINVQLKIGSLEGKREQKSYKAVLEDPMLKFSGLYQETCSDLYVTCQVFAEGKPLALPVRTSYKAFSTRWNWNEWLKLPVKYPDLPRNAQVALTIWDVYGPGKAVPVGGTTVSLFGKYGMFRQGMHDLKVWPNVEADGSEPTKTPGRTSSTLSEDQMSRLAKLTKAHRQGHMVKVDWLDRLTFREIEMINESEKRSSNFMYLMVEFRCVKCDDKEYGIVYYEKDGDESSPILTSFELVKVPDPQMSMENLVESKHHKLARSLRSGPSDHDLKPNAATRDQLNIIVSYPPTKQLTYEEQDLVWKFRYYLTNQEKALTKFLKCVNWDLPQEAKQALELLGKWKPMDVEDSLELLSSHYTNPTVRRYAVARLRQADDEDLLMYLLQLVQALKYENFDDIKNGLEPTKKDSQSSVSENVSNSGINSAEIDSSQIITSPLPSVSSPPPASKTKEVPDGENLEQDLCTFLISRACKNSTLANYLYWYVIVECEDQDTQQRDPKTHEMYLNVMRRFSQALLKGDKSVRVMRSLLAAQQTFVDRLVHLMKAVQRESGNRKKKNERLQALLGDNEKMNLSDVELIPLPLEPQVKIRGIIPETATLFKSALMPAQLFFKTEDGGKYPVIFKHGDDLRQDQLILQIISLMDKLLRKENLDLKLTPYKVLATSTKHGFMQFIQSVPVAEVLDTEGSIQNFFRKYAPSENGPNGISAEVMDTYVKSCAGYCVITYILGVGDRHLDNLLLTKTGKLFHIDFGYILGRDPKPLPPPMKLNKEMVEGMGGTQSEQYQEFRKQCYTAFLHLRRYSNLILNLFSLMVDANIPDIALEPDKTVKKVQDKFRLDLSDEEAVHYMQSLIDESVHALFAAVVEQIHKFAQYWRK

SMILES	Percent Inhibition [%]
CCc1c(-c2ccnc(Nc3ccnc(C)n3)c2)cnc(Cl)c1NS(=O)(=O)c1ccc(F)cc1F [Compound I-259, N-{6-chloro-4-ethyl-2′-[(2-methylpyrimidin-4-yl)amino]-3,4′-bipyridin-5-yl}-2,4-difluorobenzene sulfonamide]	79

Same assay, conditions: compound concentration 1.11 μM; read-out: Percent Inhibition

SMILES	inhibition at 1.11 µM [%]
CC(=O)Nc1cc(-c2cnc(Cl)c(NS(=O)(=O)c3ccc(F)cc3F)c2C)c(C)cn1 [Compound I-250, N-(6-chloro-5-{[(2,4-difluorophenyl)sulfonyl]amino}-4,5′-dimethyl-3,4′-bipyridin-2′-yl)acetamide]	99
CC(=O)Nc1cc(-c2cnc(Cl)c(NS(=O)(=O)c3ccccc3F)c2C)ccn1 [Compound I-251, N-(6-chloro-5-{[(2-fluorophenyl)sulfonyl]amino}-4-methyl-3,4′-bipyridin-2′-yl)acetamide]	97
COc1ncc(-c2ccnc(Nc3ccnc(C)n3)c2)cc1C(=O)N(C)c1ccc(F)cc1F [Compound I-252, N-(2,4-difluorophenyl)-6-methoxy-N-methyl-2′-[(2-methylpyrimidin-4-yl)amino]-3,4′-bipyridine-5-carboxamide]	> 99
Cc1nccc(Nc2cc(-c3cnc(C)c(C(=O)O)c3)ccn2)n1 [Compound I-253, 6-methyl-2′-((2-methylpyrimidin-4-yl)amino)-[3,4′-bipyridine]-5-carboxylic acid]	96
Cc1c(-c2ccnc(NC(=O)C3CC3(F)F)c2)cnc(Cl)c1NS(=O)(=O)c1ccc(F)cc1F (centres unmarked) [Compound I-254, N-(6-chloro-5-{[(2,4-difluorophenyl)sulfonyl]amino}-4-methyl-3,4′-bipyridin-2′-yl)-2,2-difluorocyclopropanecarboxamide]	77
COC(=O)Nc1cc(-c2cnc(Cl)c(NS(=O)(=O)c3ccc(F)cc3F)c2C)ccn1 [Compound I-255, methyl (6-chloro-5-{[(2,4-difluorophenyl)sulfonyl]amino}-4-methyl-3,4′-bipyridin-2′-yl)carbamate]	95
CNc1c(Cl)ncc(-c2ccnc(Nc3ccnc(C)n3)c2)c1C [Compound I-256, 6-chloro-N~5~,4-dimethyl-N~2~′-(2-methylpyrimidin-4-yl)-3,4′-bipyridine-2′,5-diamine]	94
CC(=O)Nc1cc(-c2cnc(C)c(NS(=O)(=O)N3CCC3)c2)ccn1 [Compound I-257, N-{5-[(azetidin-1-ylsulfonyl)amino]-6-methyl-3,4′-bipyridin-2′-yl}acetamide]	> 99
CC(=O)Nc1cc(-c2cc(NS(=O)(=O)c3ccc(F)cc3F)c(C)[n+]([O-])c2)ccn1 [Compound I-258, N-[4-(5-{[(2,4-difluorophenyl)sulfonyl]amino}-6-methyl-1-oxidopyridin-3-yl)pyridin-2-yl]acetamide]	88
CC(=O)Nc1cc(-c2cnc(C)c(NS(=O)(=O)N(C)C)c2C)ccn1 [Compound I-260, N-{5-[(dimethylsulfamoyl)amino]-4,6-dimethyl-3,4′-bipyridin-2′-yl}acetamide]	91
Cc1nccc(Nc2cc(-c3cnc(C)c(C(=O)N4CCCCC4)c3)ccn2)n1 [Compound I-262, {6-methyl-2′-[(2-methylpyrimidin-4-yl)amino]-3,4′-bipyridin-5-yl}(piperidin-1-yl)methanone]	81
Cc1ncc(-c2ccnc(-n3cnc4c(C)nccc43)c2)cc1NS(=O)(=O)N(C)C [Compound I-263, N,N-dimethyl-N-[6-methyl-2′-(4-methyl-1H-imidazo[4,5-c]pyridin-1-yl)-3,4′-bipyridin-5-yl]sulfuric diamide]	53
Cc1c(-c2ccnc(Nc3ccnc(-c4ccccc4)n3)c2)cnc(Cl)c1NS(=O)(=O)c1ccc(F)cc1F [Compound I-264, N-{6-chloro-4-methyl-2′-[(2-phenylpyrimidin-4-yl)amino]-3,4′-bipyridin-5-yl}-2,4-difluorobenzenesulfonamide]	100
